Data: US8063220B2, “Sulfonyl-quinoline derivatives” (Richter Gedeon Nyrt., priority 2007, dated 2011)

What was measured:
rat mGluR1 = target: T1, rat mGluR1 (Rattus norvegicus, UniProt P23385); assay: MGluR1 receptor binding test ([3H]R214127 displacement, rat cerebellar membrane preparation); settings: rat mGluR1, [3H]R214127 3 nM; read-out: mGlu1 Ki
T1 construct: rat cerebellar membrane preparation was used; from tissue; host or cells: rat cerebellum (membrane preparation)
Description: MGluR1 receptor binding tests were performed according to modified method of Lavreysen et al. (Mol. Pharm., 2003, 63, 1082). Based on the high homology between the human and rat mGluR1 receptors, rat cerebellar membrane preparation was used to determine the binding characteristics of reference compounds and novel compounds to the rat mGluR1. [3H]R214127 (3 nM) was used as radioligand and the nonspecific binding was determined in the presence of 1 μM of R214127.
IC-50 values were determined from displacement curves by nonlinear regression analysis and were converted to Ki values using the equation method of Cheng and Prusoff (Biochem. Pharmacol., 1973, 22, 3099).

rat mGluR5 = target: T2, rat mGluR5 (Rattus norvegicus, UniProt P31424); assay: MGluR5 receptor binding test ([3H]-M-MPEP displacement, rat cerebro-cortical membrane preparation); settings: rat mGluR5, [3H]-M-MPEP 2 nM; read-out: mGlu5 Ki
T2 construct: Rat cerebro-cortical membrane preparation was used; from tissue; host or cells: rat cerebral cortex (membrane preparation)
T2 sequence (P31424 21-1203): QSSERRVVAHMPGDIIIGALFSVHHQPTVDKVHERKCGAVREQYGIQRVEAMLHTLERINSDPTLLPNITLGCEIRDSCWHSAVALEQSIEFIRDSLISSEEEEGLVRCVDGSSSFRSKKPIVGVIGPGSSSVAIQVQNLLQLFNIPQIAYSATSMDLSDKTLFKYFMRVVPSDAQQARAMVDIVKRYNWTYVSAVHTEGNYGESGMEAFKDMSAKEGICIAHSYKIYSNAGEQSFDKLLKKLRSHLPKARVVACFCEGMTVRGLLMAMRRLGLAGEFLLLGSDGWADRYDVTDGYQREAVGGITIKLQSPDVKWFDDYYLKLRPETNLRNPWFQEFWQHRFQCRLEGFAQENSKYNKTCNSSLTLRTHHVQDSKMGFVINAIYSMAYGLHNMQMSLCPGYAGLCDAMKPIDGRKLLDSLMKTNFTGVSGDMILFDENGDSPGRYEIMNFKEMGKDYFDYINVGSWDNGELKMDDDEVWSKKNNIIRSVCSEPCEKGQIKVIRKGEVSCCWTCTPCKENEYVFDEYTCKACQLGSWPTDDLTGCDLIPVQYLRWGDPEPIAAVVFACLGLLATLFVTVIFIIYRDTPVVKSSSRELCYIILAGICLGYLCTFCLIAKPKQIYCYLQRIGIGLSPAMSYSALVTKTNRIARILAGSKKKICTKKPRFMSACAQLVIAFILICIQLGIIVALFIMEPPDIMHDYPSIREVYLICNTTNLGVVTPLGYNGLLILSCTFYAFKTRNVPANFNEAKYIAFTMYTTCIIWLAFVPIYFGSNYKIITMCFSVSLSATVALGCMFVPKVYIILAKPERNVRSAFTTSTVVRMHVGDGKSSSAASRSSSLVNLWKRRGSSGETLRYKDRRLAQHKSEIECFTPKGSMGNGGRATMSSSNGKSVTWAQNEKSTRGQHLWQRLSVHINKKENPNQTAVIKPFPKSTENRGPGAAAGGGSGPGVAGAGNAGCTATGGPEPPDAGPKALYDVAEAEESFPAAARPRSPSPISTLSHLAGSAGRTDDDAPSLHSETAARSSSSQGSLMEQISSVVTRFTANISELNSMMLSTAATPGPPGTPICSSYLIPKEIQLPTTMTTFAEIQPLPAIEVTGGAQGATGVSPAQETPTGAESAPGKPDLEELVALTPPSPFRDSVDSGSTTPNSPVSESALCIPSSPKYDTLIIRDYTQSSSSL
Description: Rat cerebro-cortical membrane preparation was used to determine the binding characteristics of reference compounds and novel compounds to the rat mGluR5. The A18 cell line expressing hmGluR5a (purchased from Euroscreen) was used to determine binding characteristics of the chemical compounds to the human mGluR5a receptor. [3H]-M-MPEP (2 nM) was used as radioligand. The nonspecific binding was determined in the presence of 10 μM M-MPEP.

T1 sequence (P23385 19-1199): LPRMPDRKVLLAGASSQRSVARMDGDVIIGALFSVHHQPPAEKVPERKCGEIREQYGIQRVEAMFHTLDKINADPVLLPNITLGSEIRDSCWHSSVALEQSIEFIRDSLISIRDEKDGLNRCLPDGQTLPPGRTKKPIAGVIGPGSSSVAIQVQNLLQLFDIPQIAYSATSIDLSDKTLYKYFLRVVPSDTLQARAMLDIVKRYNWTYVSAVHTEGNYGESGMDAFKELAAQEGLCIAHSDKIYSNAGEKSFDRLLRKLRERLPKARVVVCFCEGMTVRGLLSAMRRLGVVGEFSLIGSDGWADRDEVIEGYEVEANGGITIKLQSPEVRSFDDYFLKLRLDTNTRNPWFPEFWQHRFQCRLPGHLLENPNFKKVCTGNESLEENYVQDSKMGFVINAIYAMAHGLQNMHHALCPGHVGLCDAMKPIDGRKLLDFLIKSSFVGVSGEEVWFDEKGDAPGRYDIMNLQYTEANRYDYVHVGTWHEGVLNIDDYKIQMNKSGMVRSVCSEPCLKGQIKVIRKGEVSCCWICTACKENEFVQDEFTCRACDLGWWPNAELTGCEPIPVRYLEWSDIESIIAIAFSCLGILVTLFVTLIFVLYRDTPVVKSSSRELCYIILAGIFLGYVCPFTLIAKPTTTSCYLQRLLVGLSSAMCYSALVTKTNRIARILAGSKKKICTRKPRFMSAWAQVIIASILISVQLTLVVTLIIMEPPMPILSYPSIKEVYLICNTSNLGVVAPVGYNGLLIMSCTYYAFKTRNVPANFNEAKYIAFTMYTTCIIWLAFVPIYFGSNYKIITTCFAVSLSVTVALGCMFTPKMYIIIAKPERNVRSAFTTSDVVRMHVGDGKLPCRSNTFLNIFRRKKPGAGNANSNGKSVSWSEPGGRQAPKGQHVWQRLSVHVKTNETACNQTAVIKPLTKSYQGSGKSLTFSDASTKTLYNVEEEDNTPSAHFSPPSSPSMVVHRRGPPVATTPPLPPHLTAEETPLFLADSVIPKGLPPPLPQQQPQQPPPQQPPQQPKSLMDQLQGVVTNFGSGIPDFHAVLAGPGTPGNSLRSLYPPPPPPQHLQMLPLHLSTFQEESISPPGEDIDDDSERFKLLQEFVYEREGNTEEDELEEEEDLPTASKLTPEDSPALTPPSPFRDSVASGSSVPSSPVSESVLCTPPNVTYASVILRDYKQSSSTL

Ki (rat mGluR1) [nM] | Ki (rat mGluR5) [nM] | Structure (SMILES)
< 200 | < 200 | O=S(=O)(c1cc(F)cc(F)c1)c1cnc2c(F)cccc2c1-c1ccc(F)cc1 [Compound 119]
200 to 500 | < 200 | O=S(=O)(c1cccc(F)c1)c1cnc2c(F)cccc2c1-c1cccc(F)c1 [Compound 60]
> 500 | < 200 | O=S(=O)(c1cc(Cl)cc(Cl)c1)c1cnc2cc(F)ccc2c1-c1ccc(F)c(F)c1 [Compound 239]
> 500 | < 200 | N#Cc1cc(C#N)cc(S(=O)(=O)c2cnc3cc(F)ccc3c2-c2ccc(F)c(F)c2)c1 [Compound 256]
> 500 | < 200 | N#Cc1cccc(S(=O)(=O)c2cnc3cc(F)ccc3c2-c2ccccc2F)c1 [Compound 230]
> 500 | < 200 | Cc1ccc(S(=O)(=O)c2cnc3ccc(F)cc3c2-c2cccc(F)c2)cc1F [Compound 128]
> 500 | > 500 | O=S(=O)(c1ccc(F)c(Cl)c1)c1cnc2cc(F)c(Cl)cc2c1-c1ccccc1F [Compound 194]
> 500 | < 200 | COc1cccc(-c2c(S(=O)(=O)c3cccc(C#N)c3)cnc3cc(F)ccc23)c1 [Compound 93]
> 500 | < 200 | COc1cccc(-c2c(S(=O)(=O)c3ccc(F)c(Cl)c3)cnc3ccc(F)cc23)c1 [Compound 154]
> 500 | < 200 | COc1cccc(S(=O)(=O)c2cnc3ccc(F)cc3c2-c2ccc(F)cc2)c1 [Compound 73]
> 500 | < 200 | COc1cccc(-c2c(S(=O)(=O)c3cc(Cl)cc(Cl)c3)cnc3ccc(F)cc23)c1 [Compound 126]
> 500 | < 200 | COc1ccc(-c2c(S(=O)(=O)c3ccc(C)c(C)c3)cnc3ccc(F)cc23)cc1 [Compound 147]
> 500 | < 200 | O=S(=O)(c1ccc(F)c(Cl)c1)c1cnc2cc(Cl)ccc2c1-c1cccc(F)c1 [Compound 171]
200 to 500 | < 200 | O=S(=O)(c1ccc(F)cc1)c1cnc2c(F)cccc2c1-c1cccc(F)c1 [Compound 22]
200 to 500 | < 200 | O=S(=O)(c1ccc(Cl)c(Cl)c1)c1cnc2cc(Cl)ccc2c1-c1ccc(F)c(F)c1 [Compound 248]
> 500 | < 200 | Cc1ccc(S(=O)(=O)c2cnc3cc(F)ccc3c2-c2cccc(F)c2)cc1F [Compound 85]
200 to 500 | < 200 | N#Cc1cccc(S(=O)(=O)c2cnc3cc(Cl)ccc3c2-c2ccc(F)cc2)c1 [Compound 241]
200 to 500 | < 200 | O=S(=O)(c1cc(Cl)cc(Cl)c1)c1cnc2c(F)c(Cl)ccc2c1-c1cccc(Cl)c1 [Compound 252]
> 500 | < 200 | COc1ccc(-c2c(S(=O)(=O)c3ccc(F)c(F)c3)cnc3c(F)cccc23)cc1 [Compound 122]
> 500 | < 200 | O=S(=O)(c1cc(Cl)cc(Cl)c1)c1cnc2c(F)cccc2c1-c1ccccc1F [Compound 223]

Ki (rat mGluR1) [nM] | Ki (rat mGluR5) [nM] | Structure (SMILES)
> 500 | 200 to 500 | COc1cccc(-c2c(S(=O)(=O)c3ccc(OC)c(Cl)c3)cnc3cc(F)ccc23)c1 [Compound 96]
> 500 | > 500 | O=S(=O)(c1ccc(Cl)cc1)c1cnc2ccc(F)cc2c1-c1cccc(Cl)c1 [Compound 8]
> 500 | > 500 | O=S(=O)(c1cc(F)cc(F)c1)c1cnc2cc(F)c(Cl)cc2c1-c1ccc(Cl)cc1 [Compound 198]
200 to 500 | < 200 | O=S(=O)(c1ccc(Cl)cc1)c1cnc2cc(Cl)ccc2c1-c1ccc(F)cc1 [Compound 4, 7-chloro-3-(4-chloro-benzenesulfonyl)-4-(4-fluoro-phenyl)-quinoline]
> 500 | < 200 | O=S(=O)(c1ccc(F)c(Cl)c1)c1cnc2cc(Cl)ccc2c1-c1ccc(F)cc1 [Compound 183]
> 500 | < 200 | N#Cc1cc(F)cc(S(=O)(=O)c2cnc3ccccc3c2-c2cccc(F)c2)c1 [Compound 207]
200 to 500 | < 200 | N#Cc1cc(S(=O)(=O)c2cnc3cc(Cl)ccc3c2-c2ccc(F)cc2)ccc1F [Compound 276]
200 to 500 | < 200 | O=S(=O)(c1cc(Cl)cc(Cl)c1)c1cnc2c(F)cccc2c1-c1ccc(Cl)cc1 [Compound 159]
> 500 | < 200 | COc1ccc(-c2c(S(=O)(=O)c3ccc(OC)cc3)cnc3c(F)cccc23)cc1 [Compound 56]
> 500 | > 500 | O=S(=O)(c1ccc(F)cc1)c1cnc2ccc(F)cc2c1-c1cccc(Cl)c1 [Compound 24]
> 500 | < 200 | COc1ccc(-c2c(S(=O)(=O)c3ccc(F)c(F)c3)cnc3cc(F)ccc23)cc1 [Compound 99]
> 500 | < 200 | O=S(=O)(c1ccc(F)c(Cl)c1)c1cnc2c(F)c(Cl)ccc2c1-c1cccc(F)c1 [Compound 203]
> 500 | < 200 | COc1ccc(-c2c(S(=O)(=O)c3cc(F)cc(F)c3)cnc3cc(F)ccc23)cc1 [Compound 89]
200 to 500 | < 200 | O=S(=O)(c1ccc(F)c(Cl)c1)c1cnc2cc(F)ccc2c1-c1cccc(Cl)c1 [Compound 258]
> 500 | 200 to 500 | O=S(=O)(c1cc(F)cc(F)c1)c1cnc2cc(F)ccc2c1-c1cccc(Cl)c1 [Compound 87]
> 500 | < 200 | O=S(=O)(c1ccc(F)c(Cl)c1)c1cnc2cc(Cl)ccc2c1-c1ccc(Cl)cc1 [Compound 176]
> 500 | < 200 | COc1ccc(-c2c(S(=O)(=O)c3cc(F)cc(F)c3)cnc3c(F)cccc23)cc1 [Compound 117]
> 500 | < 200 | COc1ccc(S(=O)(=O)c2cnc3ccc(F)cc3c2-c2ccc(Cl)cc2)cc1Cl [Compound 78]
200 to 500 | < 200 | COc1ccc(-c2c(S(=O)(=O)c3cccc(C#N)c3)cnc3cc(F)ccc23)cc1 [Compound 92]
> 500 | < 200 | N#Cc1cccc(S(=O)(=O)c2cnc3c(F)cccc3c2-c2ccccc2F)c1 [Compound 213]

Ki (rat mGluR1) [nM] | Ki (rat mGluR5) [nM] | Structure (SMILES)
> 500 | > 500 | COc1ccc(S(=O)(=O)c2cnc3ccc(F)cc3c2-c2ccc(F)cc2)cc1Cl [Compound 165]
> 500 | < 200 | Cc1ccc(S(=O)(=O)c2cnc3ccc(F)cc3c2-c2ccc(Cl)cc2)cc1C [Compound 33]
> 500 | < 200 | COc1ccc(S(=O)(=O)c2cnc3c(F)cccc3c2-c2cccc(OC)c2)cc1 [Compound 57]
200 to 500 | < 200 | O=S(=O)(c1ccc(F)c(F)c1)c1cnc2c(F)cccc2c1-c1cc(F)cc(F)c1 [Compound 236]
> 500 | < 200 | Cc1ccc(S(=O)(=O)c2cnc3cc(F)ccc3c2-c2cccc(F)c2)cc1C [Compound 18]
> 500 | < 200 | O=S(=O)(c1ccc(F)cc1)c1cnc2cc(Cl)ccc2c1-c1cccc(F)c1 [Compound 167]
200 to 500 | < 200 | N#Cc1cc(F)cc(S(=O)(=O)c2cnc3cc(Cl)ccc3c2-c2cccc(F)c2)c1 [Compound 221]
> 500 | < 200 | O=S(=O)(c1cc(F)cc(F)c1)c1cnc2cc(Cl)ccc2c1-c1cccc(F)c1 [Compound 169]
200 to 500 | < 200 | O=S(=O)(c1ccc(F)cc1)c1cnc2c(F)cccc2c1-c1ccc(Cl)cc1 [Compound 21]
> 500 | < 200 | O=S(=O)(c1cc(F)cc(F)c1)c1cnc2cc(F)ccc2c1-c1ccc(Cl)cc1 [Compound 35, 4-(4-chloro-phenyl)-3-(3,5-difluoro-benzenesulfonyl)-7-fluoro-quinoline]
200 to 500 | 200 to 500 | O=S(=O)(c1cc(F)cc(F)c1)c1cnc2ccc(F)cc2c1-c1cccc(F)c1 [Compound 65]
> 500 | < 200 | COc1cccc(-c2c(S(=O)(=O)c3cccc(F)c3)cnc3c(F)cccc23)c1 [Compound 62]
> 500 | < 200 | COc1cccc(-c2c(S(=O)(=O)c3cc(Cl)cc(Cl)c3)cnc3c(F)cccc23)c1 [Compound 108]
200 to 500 | < 200 | N#Cc1cccc(S(=O)(=O)c2cnc3cc(F)ccc3c2-c2ccc(F)cc2)c1 [Compound 39]
200 to 500 | < 200 | O=S(=O)(c1cc(F)cc(F)c1)c1cnc2c(F)cccc2c1-c1cccc(Cl)c1 [Compound 115]
> 500 | < 200 | N#Cc1cccc(S(=O)(=O)c2cnc3ccccc3c2-c2cccc(Cl)c2)c1 [Compound 265]
200 to 500 | < 200 | O=S(=O)(c1cc(Cl)cc(Cl)c1)c1cnc2cc(F)ccc2c1-c1ccc(Cl)cc1 [Compound 157]
> 500 | < 200 | Cc1ccc(S(=O)(=O)c2cnc3cc(F)ccc3c2-c2ccc(F)cc2)cc1F [Compound 86]
> 500 | < 200 | N#Cc1cccc(S(=O)(=O)c2cnc3c(F)cccc3c2-c2ccc(Cl)cc2)c1 [Compound 225]
200 to 500 |  | O=S(=O)(c1cc(Cl)cc(Cl)c1)c1cnc2cc(F)ccc2c1-c1ccc(F)cc1 [Compound 83]
